# Target: T1, H. sapiens SLC2A9 variant 2 (GLUT9B) (Homo sapiens, UniProt Q9NRM0)
# T1 sequence (Q9NRM0 1-511 isoform Q9NRM0-2): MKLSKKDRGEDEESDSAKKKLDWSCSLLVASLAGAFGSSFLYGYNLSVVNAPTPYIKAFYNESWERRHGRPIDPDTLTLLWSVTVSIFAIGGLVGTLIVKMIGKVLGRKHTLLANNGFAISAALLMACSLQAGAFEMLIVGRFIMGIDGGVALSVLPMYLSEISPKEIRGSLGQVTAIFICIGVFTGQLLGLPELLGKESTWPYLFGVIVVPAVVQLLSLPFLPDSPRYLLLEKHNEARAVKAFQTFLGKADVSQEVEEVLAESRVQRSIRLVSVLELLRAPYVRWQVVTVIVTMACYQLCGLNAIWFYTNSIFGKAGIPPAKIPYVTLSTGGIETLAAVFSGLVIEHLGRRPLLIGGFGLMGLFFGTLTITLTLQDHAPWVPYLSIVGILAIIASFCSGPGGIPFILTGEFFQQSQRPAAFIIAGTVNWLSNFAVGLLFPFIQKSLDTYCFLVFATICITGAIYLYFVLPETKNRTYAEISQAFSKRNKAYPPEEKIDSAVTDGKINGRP
# Assay: GLUT9 functional assay: uric acid uptake in HEK293T cells, allantoin formation by MS/MS as proxy of GLUT9B inhibition
# Format: cell-based
# Conditions: 15 minute assay; HEK293T cells stably expressing GLUT9B and transiently A. oryzae uricase; uric acid 0.3 mM, 37° C.; read-out: 15 min IC50
# Method: Uric acid stocks (9 mM, Millipore-Sigma, U0881) were generated in 125 mM choline chloride (Millipore-Sigma, C7017) and the concentration was determined at 293 nm using a molar extinction coefficient of 9600 M- ^1 cm- ^1) after collecting the absorbance spectra from 220-350 nm. Allantoin stocks (12 mM Toronto Research Chemicals, A540500) were generated in LCMS grade water (Thermo Scientific, 51140). The concentration of allantoin was determined by qNMR (Michigan State University). HEK293T cells were purchased from ATCC (HEK 293T/17 SF). Hanks buffered saline salts (HBSS) was purchased from Millipore-Sigma (H6648-1L).
# SLC2A9 variant 2 was assayed in sodium gluconate buffer was composed of 125 mM sodium gluconate (TCI Chemicals, G0041-500G), 4.8 mM potassium gluconate (TCI Chemicals, G0040-500G), 1.2 mM calcium gluconate (TCI Chemicals, G0037-500G), 1.2 mM potassium phosphate (pH 7.4, Millipore-Sigma, 17835), 1.2 mM MgSO4, Millipore-Sigma, M2773-500G), 25 mM HEPES pH 7.3, (Millipore-Sigma, 54457). The final pH of the buffer was 7.4. Urate 1 was assayed in the same buffer save the pH was made to be 5.5 using 25 mM MES (pH 5.5) buffer vs 25 mM HEPES (pH 7.3) buffer.
# Human untagged clone for (untagged)-human solute carrier family 2 member 9 (SLC2A9), transcript variant (SLC2A9/NM_001001290, FIG. 1 and FIG. 2; SEQ ID NOS: 3 and 4) was purchased from Origene (Cat #SC319239). SLC2A9 variant 2 (GLUT9B) gene was amplified by PCR using the following primer to allow for the introduction of EcoR1 and Not1 sites using the primers below.
# HEK293T clonal stable cell lines containing the SLC2A9 variant 2 construct in the bicistronic pIRESpuro vector were generated using Viafect™ (Promega E4981) as per the manufactures instructions and puromycin selection (5 μg×mL^−1).
# Uric acid uptake was measured in HEK293T cells stably expressing H. sapiens SLC2A9 variant 2 (GLUT9B) and transiently expressing A. oryzae uricase. Thus, decreased allantoin formation was used as a proxy of GLUT9B inhibition. Briefly, clonal cells were plated (53,000 cells/cm^2) in DMEM with 10% FBS. Twenty-four hours later, A. oryzae uricase was transfected, and assay conducted 3 days later across a 12-point curve in buffer (in mM: 125 sodium gluconate, 4.8 potassium gluconate, 1.2 calcium gluconate, 1.2 potassium phosphate, 1.2 magnesium sulfate4, 25 HEPES; pH 7.4) with uric acid at the GLUT9B Km (0.3 mM) for 15 min or for 60 min, at 37° C. Following wash (Hanks, 37° C.), plates were sealed, incubated (5 min, RT) and cells freeze-thawed prior to lysing in water and shaking (30 min RT). Lysates were filtered through PVDF and subjected to MSMS using a 10 mM ammonium acetate-based mobile phase on a porous graphitic carbon column. Allantoin was detected in positive ion mode. Desired analyte concentrations were quantitated by integrating the area under the curve followed by a log-logistic regression model and data compared to a standard curve prepared in a matching HEK293T biological matrix.
# Mass spectrometry measurement of allantoin was completed using an Agilent RapidFire 300 coupled to a Sciex API 4000 mass spectrometer. The stationary phase was an Agilent cartridge D (hypercarb). Mobile phase A was 10 mM ammonium acetate. Mobile phase B was 5 mM ammonium acetate, 25% acetonitrile, 25% acetone. Allantoin was detected in positive ion mode with the following compound ID settings: Q1 159, Q3 115.8, DP 57, CE 12.5 Dwell 100 ms. The source settings were CAD 10, CUR 20, GS1 50, GS250 IS/NC: 5000, TEM 650, EP 10, CXP 10 where Q1 and Q3 resolution were set to low.
# Data was quantitated using Area under the curve integration was performed with the RapidFire™ Integrator (Agilent Technologies) for the desired analytes. Quantitation was completed using in a using a log-logistic regression model using allantoin in matching HEK293T biological matrix.
row,Structure (SMILES),IC50
1,"CCCCc1cnc(-c2ccc(OCCOC(F)(F)F)cc2)c(N2CCC(C(=O)O)CC2)n1 [Compound 42, 1-(6-butyl-3-(4-(2-(trifluoromethoxy)ethoxy)phenyl)pyrazin-2-yl)piperidine-4-carboxylic acid]",> 2000 nM
2,"CCCCc1cnc(-c2ccc(OC)s2)c(N2CCC(C(=O)O)CC2)n1 [Compound 43, 1-(6-butyl-3-(5-methoxythiophen-2-yl)pyrazin-2-yl)piperidine-4-carboxylic acid]",> 2000 nM
3,"CCCCc1cnc(-c2cnc(OC)s2)c(N2CCC(C(=O)O)CC2)n1 [Compound 44, 1-(6-butyl-3-(2-methoxythiazol-5-yl)pyrazin-2-yl)piperidine-4-carboxylic acid]",> 2000 nM
4,"COCCn1ccc2cc(-c3ncc(COC)nc3N3CCC(C(=O)O)CC3)cc(F)c21 [Compound 50, 1-(3-(7-fluoro-1-(2-methoxyethyl)-1H-indol-5-yl)-6-(methoxymethyl)pyrazin-2-yl)piperidine-4-carboxylic acid]",> 2000 nM
5,"COCc1cnc(-c2cc(F)c3c(ccn3C)c2)c(N2CCC(C(=O)O)CC2)n1 [Compound 51, 1-(3-(7-fluoro-1-methyl-1H-indol-5-yl)-6-(methoxymethyl)pyrazin-2-yl)piperidine-4-carboxylic acid]",> 2000 nM
6,"COc1ccc(-c2nc(Cl)c(COCC(F)(F)F)nc2N2CCC(C(=O)O)CC2)cc1 [Compound 54, 1-(5-chloro-3-(4-methoxyphenyl)-6-((2,2,2-trifluoroethoxy)methyl)pyrazin-2-yl)piperidine-4-carboxylic acid]",> 2000 nM
7,"COCc1nc(N2CCC(C(=O)O)CC2)c(-c2cc(F)c3c(ccn3C)c2)nc1Cl [Compound 56, 1-(5-chloro-3-(7-fluoro-1-methyl-1H-indol-5-yl)-6-(methoxymethyl)pyrazin-2-yl)piperidine-4-carboxylic acid]",> 2000 nM
8,"O=C(O)C1CCN(c2nc(COCC(F)(F)F)cnc2-c2ccc3oc(F)cc3c2)CC1 [Compound 57, 1-(3-(2-fluorobenzofuran-5-yl)-6-((2,2,2-trifluoroethoxy)methyl)pyrazin-2-yl)piperidine-4-carboxylic acid]",> 2000 nM
9,"O=C(O)C1CCN(c2nc(COCC(F)(F)F)cnc2-c2ccc(Cl)c(OC(F)(F)F)c2)CC1 [Compound 58, 1-(3-(4-chloro-3-(trifluoromethoxy)phenyl)-6-((2,2,2-trifluoroethoxy)methyl)pyrazin-2-yl)piperidine-4-carboxylic acid]",> 2000 nM
10,"O=C(O)C1CCN(c2nc(CCC(F)(F)F)cnc2-c2ccc3oc(F)cc3c2)CC1 [Compound 60, 1-(3-(2-fluorobenzofuran-5-yl)-6-(3,3,3-trifluoropropyl)pyrazin-2-yl)piperidine-4-carboxylic acid]",500 to 2000 nM
11,"COc1cc(-c2ncc(CCC(F)(F)F)nc2N2CCC(C(=O)O)CC2)ccc1Cl [Compound 62, 1-(3-(4-chloro-3-methoxyphenyl)-6-(3,3,3-trifluoropropyl)pyrazin-2-yl)piperidine-4-carboxylic acid]",> 2000 nM
12,"O=C(O)c1c[nH]c2cc(-c3cc(CCC(F)(F)F)cnc3-c3cc(F)c4occc4c3)ccc12 [Compound 63, 6-(2-(7-fluorobenzofuran-5-yl)-5-(3,3,3-trifluoropropyl)pyridin-3-yl)-1H-indole-3-carboxylic acid]",500 to 2000 nM
13,"O=C(O)C1CCN(c2nc(COCC(F)(F)F)cnc2-c2cnc3occc3c2)CC1 [Compound 64, 1-(3-(furo[2,3-b]pyridin-5-yl)-6-((2,2,2-trifluoroethoxy)methyl)pyrazin-2-yl)piperidine-4-carboxylic acid]",> 2000 nM

# Now from value to compound:
row,IC50,Structure (SMILES)
1,< 500 nM,"CCCCc1cnc(-c2ccc(OC)cc2)c(-c2ccc3c(C(=O)O)coc3c2)c1 [Compound 40, 6-(5-butyl-2-(4-methoxyphenyl)pyridin-3-yl)benzofuran-3-carboxylic acid]"
2,500 to 2000 nM,"CCCCc1cnc(-c2ccc(OC)cc2)c(N2CCc3c(C(=O)O)csc3C2)n1 [Compound 41, 6-(6-butyl-3-(4-methoxyphenyl)pyrazin-2-yl)-4,5,6,7-tetrahydrothieno[2,3-c]pyridine-3-carboxylic acid]"
3,< 500 nM,CCCCc1cnc(-c2ccc3c(c2)OCO3)c(N2CCC(C(=O)O)CC2)n1 [Compound 45]
4,< 500 nM,"CCCCc1cnc(-c2cc(F)c3c(c2)OCO3)c(N2CCC(C(=O)O)CC2)n1 [Compound 46, 1-(6-butyl-3-(7-fluorobenzo[d][1,3]dioxol-5-yl)pyrazin-2-yl)piperidine-4-carboxylic acid]"
5,500 to 2000 nM,"CCCCc1cnc(-c2ccc3c(c2)C(=O)CO3)c(N2CCC(C(=O)O)CC2)n1 [Compound 47, 1-(6-butyl-3-(3-oxo-2,3-dihydrobenzofuran-5-yl)pyrazin-2-yl)piperidine-4-carboxylic acid]"
6,< 500 nM,"CCCCc1cnc(-c2ccc(OC)cc2)c(N2CCC(CCC(=O)O)CC2)n1 [Compound 48, 3-(1-(6-butyl-3-(4-methoxyphenyl)pyrazin-2-yl)piperidin-4-yl)propanoic acid]"
7,500 to 2000 nM,"COCc1cnc(-c2cc(F)c3occc3c2)c(N2CCC(C(=O)O)CC2)n1 [Compound 49, 1-(3-(7-fluorobenzofuran-5-yl)-6-(methoxymethyl)pyrazin-2-yl)piperidine-4-carboxylic acid]"
8,< 500 nM,"COCc1cnc(-c2cc(F)c3ccn(C)c3c2)c(N2CCC(C(=O)O)CC2)n1 [Compound 52, 1-(3-(4-fluoro-1-methyl-1H-indol-6-yl)-6-(methoxymethyl)pyrazin-2-yl)piperidine-4-carboxylic acid]"
9,< 500 nM,"COCC(COC)Cc1cnc(-c2cc(F)c3occc3c2)c(N2CCC(C(=O)O)CC2)n1 [Compound 53, 1-(3-(7-Fluorobenzofuran-5-yl)-6-(3-Methoxy-2-(methoxymethyl)propyl)pyrazin-2-yl)piperidine-4-carboxylic acid]"
10,500 to 2000 nM,"COCc1cnc(-c2cc(F)c3c(c2)CCO3)c(N2CCC(C(=O)O)CC2)n1 [Compound 55, 1-(3-(7-fluoro-2,3-dihydrobenzofuran-5-yl)-6-(methoxymethyl)pyrazin-2-yl)piperidine-4-carboxylic acid]"
11,< 500 nM,"O=C(O)c1c[nH]c2cc(-c3cc(COC(F)(F)F)cnc3-c3cc(F)c4occc4c3)ccc12 [Compound 59, 6-(2-(7-fluorobenzofuran-5-yl)-5-((trifluoromethoxy)methyl)pyridin-3-yl)-1H-indole-3-carboxylic acid]"
12,< 500 nM,"O=C(O)C1CCN(c2nc(CCC(F)(F)F)cnc2-c2cc(F)c3occc3c2)CC1 [Compound 61, 1-(3-(7-Fluorobenzofuran-5-yl)-6-(3,3,3-Trifluoropropyl)Pyrazin-2-yl)piperidine-4-carboxylic acid]"
